Key:
Assay type in all cases: cell-based
[1] = tested on: PD1-ss+10aa/Gaussia Luciferase; assay: Dox-Induced PD1-ss-Gluc Assay; details: 24 hr, doxycycline-induced, 293FRT/TO cells; read-out: 24 hr Dox Inducible PD1ssGluc 293FRT/TO: Mean IC50
In short: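 Stable cell line carrying PD1-ss+10aa/Gaussia luciferase cDNA under T-REx (doxycycline-inducible) control, plated the day before assay. Compound dilutions in DMSO/media containing doxycycline added and incubated at 37° C, 5% CO2. Undefined stereocentres: data refer to stereoisomer mixtures.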

[2] = tested on: TNFα-FL/Gaussia Luciferase; assay: Dox Induced TNFα-FL-Gluc Assay; details: 24 hr, doxycycline-induced, 293FRT/TO cells; read-out: 24 hr Dox Inducible TNFaFLGluc 293FRT/TO: Mean IC50
In short: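 A stable T-REx cell line carrying doxycycline-inducible TNFα-FL/Gaussia luciferase was plated the day before assay. Compound dilutions in DMSO/media containing doxycycline were then added and incubated at 37° C, 5% CO2.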

[3] = tested on: HER3-ss+4aa/Gaussia Luciferase; assay: Dox-Induced Her3-ss-Gluc Assay; details: 24 hr, doxycycline-induced, 293FRT/TO cells; read-out: 24 hr Dox Inducible Her3(ss + 4)Gluc 293FRT/TO: Mean IC50
In short: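 Stable T-REx cell line carrying a doxycycline-regulated HER3-ss+4aa/Gaussia luciferase insert, plated the day before assay. Compound dilutions in DMSO/media with doxycycline added, then incubated at 37° C., 5% CO2. Stereoisomer mixtures tested where stereochemistry is not drawn.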

[4] = tested on: IL-2-FL/Gaussia Luciferase; assay: Dox Induced IL2-FL-Gluc Assay; details: 24 hr, doxycycline-induced, 293FRT/TO cells; read-out: 24 hr Dox Inducible IL2FLGIuc 293FRT/TO: Mean IC50
In short: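 Stable T-REx cell line expressing doxycycline-inducible IL-2-FL/Gaussia luciferase cDNA, plated the day before assay. Compound dilutions in DMSO/media containing doxycycline added and incubated at 37° C., 5% CO2. Unspecified stereochemistry means data refer to a stereoisomer mixture.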

[5] = tested on: human multiple myeloma cell line NCI-H929; assay: H929 Cell Viability Assay; details: 48 hr, NCI-H929 cells, Celltiter-Glo, read-out: 48 hr H929 Viability Celltiter-Glo: Mean EC50
Experimental: Plates were incubated at 37° C., 5% CO2 for 48 hours. After 48 hours, Celltiter-Glo® (Promega) was added to each well and luciferase signal was quantified using Tecan Infinite M1000 Pro for cell viability determination.
For chemical structures that include one or more stereoisomers, but are illustrated without indicating stereochemistry, the assay data refers to a mixture of stereoisomers.

[6] = tested on: human multiple myeloma cell line U266B1; assay: U266 Cell Viability Assay; details: U-266, 48 hr, U266B1 cells, Celltiter-Glo, read-out: 48 hr U266 Viability Celltiter-Glo: Mean EC50
In short: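 U266B1 myeloma cells treated with compound dilutions in DMSO/media for 48 h at 37 °C, 5% CO2. Viability read by CellTiter-Glo luminescence. Stereochemically undefined structures were tested as stereoisomer mixtures.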

IC50 [1] [µM]	IC50 [2] [µM]	IC50 [3] [µM]	IC50 [4] [µM]	EC50 [5] [µM]	EC50 [6] [µM]	SMILES
11.9	> 25	> 25	> 25	> 25	> 25	CCc1cc(NC(=O)c2cccn2Cc2ccncc2)ccc1C [Compound B10, N-(3-ethyl-4-methylphenyl)-1-(pyridin-4-ylmethyl)-1H-pyrrole-2-carboxamide]
> 25	> 25	> 25	> 25	> 25	> 25	O=C(Nc1ncc([N+](=O)[O-])s1)c1cccn1Cc1ccncc1 [Compound B17]
> 25	> 25	> 25	> 25	> 25	> 25	NC(=O)Cc1csc(NC(=O)c2cccn2Cc2ccncc2)n1 [Compound B18]
> 25	> 25	> 25	> 25	> 25	> 25	CC(C)c1csc(NC(=O)[C@@H]2CCCN2C(=O)c2ccncc2)n1 [Compound B20, (S)-1-isonicotinoyl-N-(4-isopropylthiazol-2-yl)pyrrolidine-2-carboxamide]

Second part, the compound before the results:

SMILES	IC50 [1] [µM]	IC50 [2] [µM]	IC50 [3] [µM]	IC50 [4] [µM]	EC50 [5] [µM]	EC50 [6] [µM]
CCc1nc(NC(=O)c2cccn2Cc2ccccc2)sc1C [Compound B9, 1-benzyl-N-(4-ethyl-5-methylthiazol-2-yl)-1H-pyrrole-2-carboxamide]	9.43	> 25	> 25	> 25	> 25	> 25
CC(C)(C)c1csc(NC(=O)c2cccn2Cc2ccccc2Cl)n1 [Compound B11, N-(4-(tert-butyl)thiazol-2-yl)-1-(2-chlorobenzyl)-1H-pyrrole-2-carboxamide]	22.7	> 25	5.57	> 25	> 25	> 25
CC(C)OC(C)(C)c1csc(NC(=O)Cc2ccc(Cc3ccncc3)[nH]2)n1 [Compound B12, N-(4-(2-isopropoxypropan-2-yl)thiazol-2-yl)-2-(5-(pyridin-4-ylmethyl)-1H-pyrrol-2-yl)acetamide]	> 25	> 25	> 25	> 25	> 25	> 25
CN(C(=O)c1cccn1Cc1ccncc1)c1nccs1 [Compound B13]	> 25	> 25	> 25	> 25	> 25	> 25
CCN(C(=O)c1cccn1Cc1ccncc1)c1nccs1 [Compound B14]	> 25	> 25	> 25	> 25	> 25	> 25
N#Cc1cnc(NC(=O)c2cccn2Cc2ccncc2)s1 [Compound B15]	> 25	> 25	> 25	> 25	> 25	> 25
CNC(=O)c1cnc(NC(=O)c2cccn2Cc2ccncc2)s1 [Compound B16]	> 25	> 25	> 25	> 25	> 25	> 25
CN(C)Cc1csc(NC(=O)c2cccn2Cc2ccncc2)n1 [Compound B19]	> 25	> 25	> 25	> 25	> 25	> 25
CC(C)c1csc(NC(=O)[C@H]2CCCN2C(=O)c2ccncc2)n1 [Compound B21, (R)-1-isonicotinoyl-N-(4-isopropylthiazol-2-yl)pyrrolidine-2-carboxamide]	> 25	> 25	> 25	> 25	> 25	> 25
